# From PMC9403976, “Elucidating the path to Plasmodium prolyl-tRNA synthetase inhibitors that overcome halofuginone resistance” (Nature Communications, 2022)
# Values joined by “and” are separate entries in the source; they are usually repeats but may differ in a detail not shown here. Equal entries are not always repeated. Where two headings read alike, the source gives them in different places.
# Columns and labels:
# P. falciparum Dd2-2D4 = assay: P. falciparum asexual blood stage (ABS) growth assay, SYBR Green, 72 h, wild-type parasites; assay type: cell-based, Plasmodium falciparum; conditions: Plasmodium falciparum, DD2; SI Fig 16b; values on -log scale; read-out: ABS - Dd2-2D4 (converted)
# HsProRS = HsProRS (Homo sapiens, UniProt P07814); assay: TR-FRET ligand displacement assay with tracer MAT379 (CoraFluor-1-Halo and anti-His6 antibody formats); assay type: binding; parameters: made in house; host or cells: E. coli SoluBL-21; conditions: for TR-FRET dose-response, normalized signal (SI Fig 11): individual replicates
# Sequence of HsProRS (P07814 996-1512): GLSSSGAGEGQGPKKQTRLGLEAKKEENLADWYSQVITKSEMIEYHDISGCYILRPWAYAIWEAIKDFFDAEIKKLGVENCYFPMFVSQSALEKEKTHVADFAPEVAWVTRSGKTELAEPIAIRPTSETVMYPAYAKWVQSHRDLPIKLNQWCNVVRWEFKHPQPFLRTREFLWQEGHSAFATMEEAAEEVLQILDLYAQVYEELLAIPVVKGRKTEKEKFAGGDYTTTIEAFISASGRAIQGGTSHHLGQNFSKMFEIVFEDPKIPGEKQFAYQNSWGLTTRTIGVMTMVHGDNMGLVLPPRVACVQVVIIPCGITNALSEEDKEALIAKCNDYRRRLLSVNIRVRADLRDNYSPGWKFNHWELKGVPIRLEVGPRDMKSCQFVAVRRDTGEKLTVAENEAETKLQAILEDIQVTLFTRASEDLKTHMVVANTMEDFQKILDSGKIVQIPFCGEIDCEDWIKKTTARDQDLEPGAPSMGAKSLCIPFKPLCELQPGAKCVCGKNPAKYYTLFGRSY
# PfcProRS = biological target: T1, PfcProRS (Plasmodium falciparum, UniProt Q8I5R7); assay type: binding; conditions: single replicates
# T1 construct: made in house; host or cells: E. coli SoluBL-21
# T1 sequence (Q8I5R7 249-746): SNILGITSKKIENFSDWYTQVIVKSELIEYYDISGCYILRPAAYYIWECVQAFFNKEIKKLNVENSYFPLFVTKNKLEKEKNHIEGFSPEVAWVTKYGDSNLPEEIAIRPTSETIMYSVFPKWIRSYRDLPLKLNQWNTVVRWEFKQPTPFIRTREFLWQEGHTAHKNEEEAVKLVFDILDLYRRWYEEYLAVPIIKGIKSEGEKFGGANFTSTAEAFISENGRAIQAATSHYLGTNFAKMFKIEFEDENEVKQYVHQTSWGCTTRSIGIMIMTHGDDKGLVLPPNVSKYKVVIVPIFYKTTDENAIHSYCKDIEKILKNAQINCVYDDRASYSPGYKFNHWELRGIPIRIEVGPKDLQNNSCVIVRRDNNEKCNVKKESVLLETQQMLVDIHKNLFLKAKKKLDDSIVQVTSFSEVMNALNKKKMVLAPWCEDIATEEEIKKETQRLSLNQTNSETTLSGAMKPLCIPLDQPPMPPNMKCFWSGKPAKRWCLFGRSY
compound,measurement,setting,value
NC(=O)Nc1nccnc1C(=O)NC1Cc2ccccc2C1 [compound 23],EC50,P. falciparum Dd2-2D4,12.1 µM
same,IC50,HsProRS,> 10 µM
same,"HsProRS % signal at 10 μM, + 100 μM proline","HsProRS; + 100 μM proline, 10 μM",78.4%
same,"normalized TR-FRET ligand displacement signal, dose-response replicates (SI Fig 6)",HsProRS; Log[inhibitor] (M) -5.000,9.23E-01 and 9.68E-01 and 8.88E-01
same,"TR-FRET dose-response, normalized signal (SI Fig 11)",HsProRS; Log[inhibitor] (M) -5.000,8.87E-01 and 8.66E-01 and 9.17E-01
same,"normalized TR-FRET ligand displacement signal, dose-response replicates (SI Fig 6)",HsProRS; Log[inhibitor] (M) -5.301,9.33E-01 (2×) and 1.11E+00
same,"TR-FRET dose-response, normalized signal (SI Fig 11)",HsProRS; Log[inhibitor] (M) -5.301,9.05E-01 and 8.98E-01 and 9.19E-01
same,"normalized TR-FRET ligand displacement signal, dose-response replicates (SI Fig 6)",HsProRS; Log[inhibitor] (M) -5.601,9.64E-01 and 1.03E+00 and 9.59E-01
same,"TR-FRET dose-response, normalized signal (SI Fig 11)",HsProRS; Log[inhibitor] (M) -5.601,9.98E-01 and 9.77E-01 and 1.05E+00
same,"normalized TR-FRET ligand displacement signal, dose-response replicates (SI Fig 6)",HsProRS; Log[inhibitor] (M) -5.904,1.09E+00 and 1.01E+00 and 9.81E-01
same,"TR-FRET dose-response, normalized signal (SI Fig 11)",HsProRS; Log[inhibitor] (M) -5.904,1.00E+00 and 9.89E-01 and 1.01E+00
same,"normalized TR-FRET ligand displacement signal, dose-response replicates (SI Fig 6)",HsProRS; Log[inhibitor] (M) -6.208,9.87E-01 and 1.09E+00 and 1.03E+00
same,"TR-FRET dose-response, normalized signal (SI Fig 11)",HsProRS; Log[inhibitor] (M) -6.208,9.53E-01 and 1.02E+00 and 9.38E-01
same,"normalized TR-FRET ligand displacement signal, dose-response replicates (SI Fig 6)",HsProRS; Log[inhibitor] (M) -6.509,9.55E-01 and 1.02E+00 and 8.65E-01
same,"TR-FRET dose-response, normalized signal (SI Fig 11)",HsProRS; Log[inhibitor] (M) -6.509,1.01E+00 and 1.02E+00 and 9.66E-01
same,"normalized TR-FRET ligand displacement signal, dose-response replicates (SI Fig 6)",HsProRS; Log[inhibitor] (M) -6.796,1.06E+00 and 9.70E-01 and 9.00E-01
same,"TR-FRET dose-response, normalized signal (SI Fig 11)",HsProRS; Log[inhibitor] (M) -6.796,1.06E+00 and 1.02E+00 and 1.01E+00
same,"normalized TR-FRET ligand displacement signal, dose-response replicates (SI Fig 6)",HsProRS; Log[inhibitor] (M) -7.108,9.62E-01 and 9.53E-01 and 1.03E+00
same,"TR-FRET dose-response, normalized signal (SI Fig 11)",HsProRS; Log[inhibitor] (M) -7.108,9.79E-01 and 1.00E+00 and 1.02E+00
same,"normalized TR-FRET ligand displacement signal, dose-response replicates (SI Fig 6)",HsProRS; Log[inhibitor] (M) -7.409,9.73E-01 and 9.58E-01 and 1.07E+00
same,"TR-FRET dose-response, normalized signal (SI Fig 11)",HsProRS; Log[inhibitor] (M) -7.409,1.02E+00 (2×) and 1.04E+00
same,"normalized TR-FRET ligand displacement signal, dose-response replicates (SI Fig 6)",HsProRS; Log[inhibitor] (M) -7.710,1.04E+00 and 9.48E-01 and 1.10E+00
same,"TR-FRET dose-response, normalized signal (SI Fig 11)",HsProRS; Log[inhibitor] (M) -7.710,1.01E+00 and 1.04E+00 and 9.76E-01
same,"normalized TR-FRET ligand displacement signal, dose-response replicates (SI Fig 6)",HsProRS; Log[inhibitor] (M) -8.000,1.00E+00 (2×) and 1.06E+00
same,"TR-FRET dose-response, normalized signal (SI Fig 11)",HsProRS; Log[inhibitor] (M) -8.000,9.60E-01 and 1.00E+00 (2×)
same,"normalized TR-FRET ligand displacement signal, dose-response replicates (SI Fig 6)",HsProRS; Log[inhibitor] (M) -8.301,9.32E-01 and 1.07E+00 and 9.64E-01
same,"TR-FRET dose-response, normalized signal (SI Fig 11)",HsProRS; Log[inhibitor] (M) -8.301,1.00E+00 and 9.88E-01 and 1.08E+00
same,"normalized TR-FRET ligand displacement signal, dose-response replicates (SI Fig 6)",HsProRS; Log[inhibitor] (M) -8.602,1.06E+00 and 1.00E+00 and 1.07E+00
same,"TR-FRET dose-response, normalized signal (SI Fig 11)",HsProRS; Log[inhibitor] (M) -8.602,1.00E+00 and 1.01E+00 and 9.76E-01
same,"normalized TR-FRET ligand displacement signal, dose-response replicates (SI Fig 6)",HsProRS; Log[inhibitor] (M) -9.000,1.03E+00 (2×) and 9.79E-01
same,"TR-FRET dose-response, normalized signal (SI Fig 11)",HsProRS; Log[inhibitor] (M) -9.000,1.00E+00 and 9.57E-01 and 9.73E-01
same,"normalized TR-FRET ligand displacement signal, dose-response replicates (SI Fig 6)",HsProRS; Log[inhibitor] (M) -9.301,1.02E+00 (2×) and 9.65E-01
same,"TR-FRET dose-response, normalized signal (SI Fig 11)",HsProRS; Log[inhibitor] (M) -9.301,9.83E-01 and 9.76E-01 and 9.75E-01
same,HsProRS % signal at 10 μM,"HsProRS; no added proline/ATP (-), 10 μM",89.0%
same,IC50,"HsProRS; read-out: HsProRS IC50 + 100 μM proline, + 100 μM proline",> 10 µM
same,"dose-response signal (normalized), SI Fig 8",PfcProRS; Log[inhibitor] (M) -5.000,9.53E-01 and 9.58E-01 and 9.22E-01
same,"dose-response signal (normalized), SI Fig 8",PfcProRS; Log[inhibitor] (M) -5.301,9.58E-01 and 1.12E+00 and 1.10E+00
same,"dose-response signal (normalized), SI Fig 8",PfcProRS; Log[inhibitor] (M) -5.601,1.05E+00 and 1.01E+00 and 9.67E-01
same,"dose-response signal (normalized), SI Fig 8",PfcProRS; Log[inhibitor] (M) -5.904,9.75E-01 and 1.01E+00 and 9.11E-01
same,"dose-response signal (normalized), SI Fig 8",PfcProRS; Log[inhibitor] (M) -6.208,1.13E+00 and 1.21E+00 and 1.04E+00
same,"dose-response signal (normalized), SI Fig 8",PfcProRS; Log[inhibitor] (M) -6.509,1.02E+00 and 1.09E+00 and 1.04E+00
same,"dose-response signal (normalized), SI Fig 8",PfcProRS; Log[inhibitor] (M) -6.796,1.08E+00 and 1.02E+00 and 1.06E+00
same,"dose-response signal (normalized), SI Fig 8",PfcProRS; Log[inhibitor] (M) -7.108,9.85E-01 and 1.02E+00 and 9.97E-01
same,"dose-response signal (normalized), SI Fig 8",PfcProRS; Log[inhibitor] (M) -7.409,9.53E-01 and 1.06E+00 and 1.07E+00
same,"dose-response signal (normalized), SI Fig 8",PfcProRS; Log[inhibitor] (M) -7.710,9.44E-01 and 1.06E+00 and 1.08E+00
same,"dose-response signal (normalized), SI Fig 8",PfcProRS; Log[inhibitor] (M) -8.000,9.87E-01 and 9.72E-01 and 1.16E+00
same,"dose-response signal (normalized), SI Fig 8",PfcProRS; Log[inhibitor] (M) -8.301,1.10E+00 and 1.12E+00 and 1.02E+00
same,"dose-response signal (normalized), SI Fig 8",PfcProRS; Log[inhibitor] (M) -8.602,9.87E-01 and 1.09E+00 and 1.12E+00
same,"dose-response signal (normalized), SI Fig 8",PfcProRS; Log[inhibitor] (M) -9.000,1.08E+00 and 9.51E-01 and 1.17E+00
same,"dose-response signal (normalized), SI Fig 8",PfcProRS; Log[inhibitor] (M) -9.301,9.82E-01 and 1.20E+00 and 1.04E+00
